Here are results for three compounds from patent US7902384B2, “Estrogenic-active compounds and application thereof” (National Taiwan University, priority 2008, dated 2011).

The target in test [1] is T1, GAL4-hERα (Homo sapiens, UniProt P03372).
T1 sequence (P03372 311-547 limits assumed): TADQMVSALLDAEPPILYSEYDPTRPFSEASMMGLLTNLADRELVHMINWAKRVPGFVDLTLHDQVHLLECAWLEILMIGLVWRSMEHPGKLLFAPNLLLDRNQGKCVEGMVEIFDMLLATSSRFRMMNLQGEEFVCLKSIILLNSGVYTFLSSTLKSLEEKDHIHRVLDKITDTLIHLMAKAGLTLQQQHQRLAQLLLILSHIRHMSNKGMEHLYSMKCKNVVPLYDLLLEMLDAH
Put plainly: Estrogenic activity assay with co-addition of 1 nM 17β-estradiol (antagonism or synergistic agonism), GAL4-hERα reporter in CHO-k1 cells. To be noted: co-added with 1 nM 17β-estradiol, vs single addition of estrogen, p<0.05.
From the text: (§2) Plasmid pBKCMV containing GAL4hERα (or ERβ) ligand binding domain (LBD) chimeric receptors and plasmid containing (UAS)4-alkaline phosphatase (ALP) reporter gene were co-transfected into Chinese hamster cells (CHO-k1). Compounds with estrogenic activity would interact with estrogen-specific ER to induce the binding of GAL4 and upstream activation sequence (UAS) specifically to initiate the expression of ALP gene. Therefore, the ALP activity can be used to determine whether the samples to be assayed have the estrogenic activity.
(§3) Cells in high confluence were plated onto 96-well culture plate the day before transfection. The plate was then washed to remove the serum during the day of transfection, followed by addition of two plasmid DNA, GAL4-hERα and (UAS)4-ALP in the ratio of 5:1, or GAL4-hERβ and (UAS)4-ALP in the ratio of 4:1, together with Lipofectamine™ 2000 transfection agent and culture medium to form DNA-liposome complex for 5 h.
(§4) The sample to be assayed was added into the medium of transfected cells and cultivated for 2 days.

The target of test [2] is T2, GAL4-hERβ (Homo sapiens, UniProt Q92731). Put plainly: Estrogenic activity assay: GAL4-hERβ LBD / (UAS)4-ALP reporter in transfected CHO-k1 cells, single addition of sample. Format: cell-based. Also on record: expressed in transfected cells; host or cells: CHO-k1 (Chinese hamster cells). The settings on record: for EC50: read-out: EC50 for ERβ (converted); for ERβ versus ERα selectivity of activation: comparison of ERα and ERβ reporter activation. The text has this: (§1) First, a method for assessing the estrogenic activity in the field samples was established. This method comprises: preparing a cell line transfected with plasmids which can screen estrogenic activity substances. […] The reporter gene in the plasmid was expressed when the sample to be assayed contains estrogenic activity. Among them, the samples to be assayed in the examples of the invention include Loliolide, (4S,6S)-4-Hydroxy-6-nonadecyl-tetrahydro-pyran-2-one, (4R,6S)-4-Hydroxy-6-nonadecyl-tetrahydro-pyran-2-one. […] The details of establishing the assessing method are described as follows: […]

Test [3] addresses T1, GAL4-hERα. Description: Estrogenic activity assay: GAL4-hERα LBD / (UAS)4-ALP reporter in transfected CHO-k1 cells, single addition of sample. It counts as cell-based. The settings on record: for EC50: read-out: EC50 for ERα (converted). The arrangement: expressed in transfected cells; host or cells: CHO-k1 (Chinese hamster cells).
From the text: as §1

The target in test [4] is T2, GAL4-hERβ. Put plainly: Estrogenic activity assay with co-addition of 1 nM 17β-estradiol (antagonism or synergistic agonism), GAL4-hERβ reporter in CHO-k1 cells. The settings on record: co-added with 1 nM 17β-estradiol, vs single addition of estrogen, p<0.05.
From the text: as §2, §3, §4
Setting [5] is: ALP reporter, CHO-k1, single addition.

The structures appear in SMILES notation. Several values for one entry are separate records, joined by “and”; a condition that tells them apart may be missing. Identical values can stand only once.

T2 sequence (Q92731 264-498 limits assumed): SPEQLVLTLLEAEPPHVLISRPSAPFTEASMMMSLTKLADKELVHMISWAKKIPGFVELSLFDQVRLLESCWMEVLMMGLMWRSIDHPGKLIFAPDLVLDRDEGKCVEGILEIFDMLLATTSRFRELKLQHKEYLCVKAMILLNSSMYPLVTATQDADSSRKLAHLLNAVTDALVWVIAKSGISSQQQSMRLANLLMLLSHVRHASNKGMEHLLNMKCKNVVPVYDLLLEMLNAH

Turning to `CCCCCCCCCCCCCCCCCCC[C@H]1C[C@@H](O)CC(=O)O1` [(4R,6S)-4-Hydroxy-6-nonadecyl-tetrahydro-pyran-2-one], the “concentration at which activation of ERα due to estrogen was significantly decreased” value at GAL4-hERα [1] is 2 µg/mL. For the same compound, at GAL4-hERβ [2] (setting [5]), the “concentration at which maximal activation of ERβ activity was achieved” value (from here on “concentration … of ERβ activity was achieved”) turned out to be 10 µg/mL and the EC50 is 8.94 µM. In addition, the “ERβ versus ERα selectivity of activation” value at GAL4-hERβ [2] is recorded as “better activation efficiency in ERβ”. Moreover, on GAL4-hERα [3], the “concentration at which maximal activation of ERα activity was achieved” value (“concentration … of ERα activity was achieved” for short) was determined as 20 µg/mL. Also, on GAL4-hERβ [4], the “concentration at which activation of ERβ due to estrogen was significantly decreased” value came to 2 µg/mL.

In the case of `CCCCCCCCCCCCCCCCCCC[C@H]1C[C@H](O)CC(=O)O1` [(4S,6S)-4-Hydroxy-6-nonadecyl-tetrahydro-pyran-2-one], the “concentration at which activation of ERα due to estrogen was significantly decreased” value at GAL4-hERα [1] is 1 µg/mL. At GAL4-hERβ [2] (setting [5]), the “concentration … of ERβ activity was achieved” value was found to be 10 µg/mL and the EC50 was 4.68 µM. In addition, the “ERβ versus ERα selectivity of activation” value at GAL4-hERβ [2] is “better activation efficiency in ERβ”. Besides, at GAL4-hERα [3], the “concentration … of ERα activity was achieved” value worked out at 10 µg/mL and the EC50 is 16.2 µM. The “concentration at which activation of ERβ due to estrogen was significantly decreased” value at GAL4-hERβ [4] turned out to be 2 µg/mL.

Take `CC1(C)C[C@H](O)C[C@@]2(C)OC(=O)C=C12` [Loliolide]: the “concentration at which activation of ERα due to estrogen was significantly decreased” value at GAL4-hERα [1] was 10.1 µM. Further, at GAL4-hERβ [2] (setting [5]), the “concentration … of ERβ activity was achieved” value was found to be 20 µg/mL; the “concentration at which maximal activation of the estrogenic activity was achieved (ERβ)” value came to 102.0 µM; the EC50 is 17.9 µM and 18 µM. In addition, the “ERβ versus ERα selectivity of activation” value at GAL4-hERβ [2] is reported as “better activation efficiency in ERβ”. Further, on GAL4-hERα [3], the “concentration … of ERα activity was achieved” value was determined as 20 µg/mL, the “concentration at which maximal activation of the estrogenic activity was achieved (ERα)” value came to 102.0 µM and the EC50 is 54.2 µM. For the same compound, at GAL4-hERβ [4], the “concentration at which activation of ERβ due to estrogen was significantly decreased” value stood at 204 µM.
